# Columns and labels:
# alloxan diabetic mice [1] = test: Hyperglycemic status (blood glucose) of alloxan diabetic mice; type: in vivo; settings: for glycemia: diabetic mice
# Experimental: Male albino mice were used throughout the study, housed in a environmentally regulated room on a dark-light cycle of 12 hours with free access to food and water. Principles of laboratory animal care (NIH publication no. 85-23, revised 1985) were followed, as well as specific Spanish regulations. Animals were made diabetic with a single subcutaneous injection of 200 mg alloxan/kg body weight (66 mg/ml) in 0.1 M citrate buffer, pH 4.5, at day 0 of the experiment. Control mice were injected with the same volume of vehicle also at day 0 of the experiment. Mice were identified as diabetic on the basis of blood glucose levels (higher than 16 mM at least 4 days after alloxan treatment). Animals were divided into subgroups as required by the experiment (control, control+lutein, diabetic, diabetic+lutein, diabetic+insulin, diabetic+insulin+lutein). […] Insulin treated animals were injected daily with 500 mU/g body weight since day 4 until the end of the experiment. Mice were killed by cervical dislocation on day 14, and hippocampus and retina were removed and homogenized in pre-chilled 0.2 M potassium phosphate buffer, pH 7.0. These homogenates were used to assay protein, GPx activity and MDA and GSH concentrations. Samples were kept frozen (−80° C.) until biochemical assays were performed. Blood was taken from the tail vein daily to assay blood glucose levels. Glycated hemoglobin was determined in blood samples obtained by heart puncture immediately before killing the animals.
# [2] = tested on: MDA, a lipid peroxidation product; test: MDA concentration by liquid chromatography in serum, eye and hippocampus of diabetic mice; type: in vivo
# Experimental: Male albino mice were used throughout the study, housed in a environmentally regulated room on a dark-light cycle of 12 hours with free access to food and water. Principles of laboratory animal care (NIH publication no. 85-23, revised 1985) were followed, as well as specific Spanish regulations. Animals were made diabetic with a single subcutaneous injection of 200 mg alloxan/kg body weight (66 mg/ml) in 0.1 M citrate buffer, pH 4.5, at day 0 of the experiment. Control mice were injected with the same volume of vehicle also at day 0 of the experiment.
# Mice were identified as diabetic on the basis of blood glucose levels (higher than 16 mM at least 4 days after alloxan treatment). Animals were divided into subgroups as required by the experiment (control, control+lutein, diabetic, diabetic+lutein, diabetic+insulin, diabetic+insulin+lutein). […] Insulin treated animals were injected daily with 500 mU/g body weight since day 4 until the end of the experiment. Mice were killed by cervical dislocation on day 14, and hippocampus and retina were removed and homogenized in pre-chilled 0.2 M potassium phosphate buffer, pH 7.0. These homogenates were used to assay protein, GPx activity and MDA and GSH concentrations. Samples were kept frozen (−80° C.) until biochemical assays were performed. Blood was taken from the tail vein daily to assay blood glucose levels. Glycated hemoglobin was determined in blood samples obtained by heart puncture immediately before killing the animals.
# MDA, a lipid peroxidation product, concentration was measured by liquid chromatography according to a modification of the method of Richard et al. (1992) as previously described (Romero et al., 1998). Briefly, 0.1 ml of sample (or standard solutions prepared daily from 1,1,3,3-tetramethoxypropane) and 0.75 ml of working solution (thiobarbituric acid 0.37% and perchloric acid 6.4%; 2/1, v/v) were mixed and heated to 95° C. for 1 h. After cooling (10 min in ice water bath), the flocculent precipitate was removed by centrifugation at 3,200×g for 10 min. The supernatant was neutralized and filtered (0.22 μm) prior to injection on an ODS column 5 μm column (250×4.6 mm). Mobile phase consisted in 50 mM phosphate buffer (pH 6.0): methanol (58:42, v/v). Isocratic separation was performed with 1.0 ml/min flow (HPLC System 325, Kontron) and detection at 532 nm (UV/VIS HPLC Detector 332, Kontron). Calibration curves were run daily.
# alloxan diabetic mice [3] = test: Morris water maze (spatial learning and memory) in diabetic mice; type: in vivo
# Experimental: Male albino mice were used throughout the study, housed in a environmentally regulated room on a dark-light cycle of 12 hours with free access to food and water. Principles of laboratory animal care (NIH publication no. 85-23, revised 1985) were followed, as well as specific Spanish regulations. Animals were made diabetic with a single subcutaneous injection of 200 mg alloxan/kg body weight (66 mg/ml) in 0.1 M citrate buffer, pH 4.5, at day 0 of the experiment. Control mice were injected with the same volume of vehicle also at day 0 of the experiment. Mice were identified as diabetic on the basis of blood glucose levels (higher than 16 mM at least 4 days after alloxan treatment). Animals were divided into subgroups as required by the experiment (control, control+lutein, diabetic, diabetic+lutein, diabetic+insulin, diabetic+insulin+lutein). Lutein was administered daily at a dose of 0.2 mg/kg p.o since day 4 after alloxan or citrate buffer injection until the end of the experiment. […] Glycated hemoglobin was determined in blood samples obtained by heart puncture immediately before killing the animals. […] We measured the duration from the time the mouse was dropped into the maze to the time the mouse climbed onto the platform (latency time). The latency was recorded manually using a stopwatch. […] The percentage of time spent in each of the pool quadrants was also recorded.
# GPx activity = settings: diabetic animals; Miranda et al., 2004; cited from earlier work
# alloxan diabetic mice [4] = settings: diabetic animals; Miranda et al., 2004; cited from earlier work
# [5] = lutein 100 mg/kg p.o. or insulin 500 mU/g body weight s.c. on days 4-13
smiles,measurement,setting,value
CC1=C[C@H](O)CC(C)(C)[C@H]1/C=C/C(C)=C/C=C/C(C)=C/C=C/C=C(C)/C=C/C=C(C)/C=C/C1=C(C)C[C@@H](O)CC1(C)C [Lutein],hyperglycemic status,"alloxan diabetic mice [1]; alloxan diabetic mice, fourteen days after alloxan injection",did not alter
same,glycemia,alloxan diabetic mice [1]; lutein 0.2 mg/kg p.o. on days 4-13 (hippocampus section),no effect
same,glycemia,alloxan diabetic mice [1]; lutein 100 mg/kg p.o. on days 4-13 (retina section),no effect
same,MDA levels in hippocampus,[2]; lutein 0.2 mg/kg p.o. or insulin 500 mU/g body weight s.c. on days 4-13,restored
same,MDA levels in hippocampus,"[2]; lutein 0.2 mg/kg p.o. or insulin 500 mU/g body weight s.c. on days 4-13, listed as lutein",able to prevent this effect
same,MDA levels in ocular tissue,[2]; [5],restored
same,MDA levels in serum,[2]; [5],restored
same,MDA levels in ocular tissue,"[2]; lutein 100 mg/kg p.o. or insulin 500 mU/g body weight s.c. on days 4-13, listed as lutein",able to prevent this effect
same,escape latencies in the Morris water maze,alloxan diabetic mice [3],diminished
same,glutathione peroxidase activity of the retinas,GPx activity,restored
same,b-wave amplitude of the electroretinogram,alloxan diabetic mice [4],restored

# — patent US20060205826A1, “Method of using carotenoids in the prevention of cognitive decline and for other neuroprotection functions” (priority 2005, published 2006)
